Data published in paper PMC11866022, “Long-Chain Cyclic Arylguanidines as Multifunctional Serotonin Receptor Ligands with Antiproliferative Activity” (ACS Omega, 2025).

Tests used:
[1] = tested on: LN-229 glioblastoma cells; experiment: Antiproliferative activity (MTS), LN-229; assay type: cell-based, human; details: Homo sapiens, LN-229; MTS assay, 72 h
Procedure: (§1) These cell lines were characterized by different mutation profiles, the main one being the variable status of the p53 protein. In detail, U87MG cells have a wild-type p53 protein, while astrocytoma and the rest of GBM cells harbor mutated p53 protein. Additional assays were performed on MCF7 breast cancer and AsPC-1 pancreatic cancer cells. The wide range of tested lines was aimed at screening the anticancer potential of the tested compounds. The first represents one of the most common and the second one of the most aggressive cancers in the world. Comparing the activity of compounds on GBM cells to other types of cancer may reveal their selectivity and usefulness in targeted therapies. The cytotoxicity of the compounds on normal human astrocytes (NHA) and Feline catus astrocyte (PG-4) was determined. Tests on normal lines serve to verify the potential toxicity of the tested compounds on healthy cells. Due to the targeting of CNS tumors, astrocytes were selected as normal lines.
(§2) The detailed procedure is presented in previous publications.[53] […] Cells were cultured in appropriate media, supplemented with FBS, antibiotics, and other supplements, and incubated at 37 °C with 5% CO2. […] Cell viability was assessed using the MTS assay, and the inhibitory concentration (IC50) was calculated using GraphPad Prism 8.0. Each compound was tested in triplicate across multiple experiments.

[2] = target: T1, 5-HT1A (Homo sapiens, UniProt P08908); experiment: Radioligand binding assay, 5-HT1A ([3H]-8-OHDPAT); details: Table 3, unit inferred; 2.5 nM [3H]-8-OHDPAT
T1 construct: expressed in transfected cells; host or cells: HEK293
T1 sequence (P08908 1-422): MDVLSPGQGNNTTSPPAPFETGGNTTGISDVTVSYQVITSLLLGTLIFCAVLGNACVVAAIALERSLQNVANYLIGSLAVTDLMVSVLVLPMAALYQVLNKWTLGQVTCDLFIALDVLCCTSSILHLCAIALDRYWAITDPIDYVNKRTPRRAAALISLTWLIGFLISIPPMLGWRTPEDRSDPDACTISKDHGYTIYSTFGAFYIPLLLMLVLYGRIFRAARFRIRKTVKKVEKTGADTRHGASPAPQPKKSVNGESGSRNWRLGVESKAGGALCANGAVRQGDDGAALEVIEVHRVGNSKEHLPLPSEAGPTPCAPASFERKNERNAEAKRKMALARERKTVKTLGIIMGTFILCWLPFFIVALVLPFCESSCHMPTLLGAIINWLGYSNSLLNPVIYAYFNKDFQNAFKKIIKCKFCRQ
Procedure: Their functional activity was also evaluated by assessing their ability to inhibit agonist-induced cAMP production in HEK293 cells (Table 3). Extended radioisotope tests were aimed at detecting potential affinity for other aminergic receptors, whose role in cancer treatment may be important. Functions were tested for all receptors. The essence of functional tests results from the fact that serotonin stimulates tumor progression. Therefore, the ligand should have the potential to reduce its concentration, i.e., act as an antagonist.[39]
(§3) The detailed procedure is presented in previous publications.[53] Assays were performed by incubating for 1 h at 37 °C (room temperature for 5-HT1A) in 200 μL volumes on 96-well plates. The reaction was terminated by rapid filtration using Unifilter plates, and radioactivity on the filters was measured with a PerkinElmer Microbeta plate reader. Radioligands used were:
(§4) Eight concentrations (10^–4 to 10^–11 M) were tested in triplicate for each compound. Inhibition constants (Ki) were calculated using the Cheng–Prusoff equation.[54] The results are expressed as the means of at least two independent experiments.

[3] = tested on: HEK293; experiment: Viability of HEK293 cells; assay type: cell-based; details: Homo sapiens
Source text: PP 10 was characterized by a moderate 5-HT1A/5-HT5A/5-HT6/5-HT7 antagonist profile. […] Due to its potential function as an […], the viability of HEK293 cells treated with the test compounds was examined. No cytotoxic effects of the compounds were detected in the tested concentration range.

[4] = tested on: U-251 glioblastoma cells; experiment: Antiproliferative activity (MTS), U-251; assay type: cell-based, human; details: Homo sapiens, U-251; MTS assay, 72 h
Procedure: as §1, §2

[5] = target: T2, 5-HT6 (Homo sapiens, UniProt P50406); experiment: Radioligand binding assay, 5-HT6 ([3H]-LSD); details: HEK293 cell line with human 5-HT6R; 2 nM [3H]-LSD
T2 construct: expressed in transfected cells; host or cells: HEK293
T2 sequence (P50406 whole entry): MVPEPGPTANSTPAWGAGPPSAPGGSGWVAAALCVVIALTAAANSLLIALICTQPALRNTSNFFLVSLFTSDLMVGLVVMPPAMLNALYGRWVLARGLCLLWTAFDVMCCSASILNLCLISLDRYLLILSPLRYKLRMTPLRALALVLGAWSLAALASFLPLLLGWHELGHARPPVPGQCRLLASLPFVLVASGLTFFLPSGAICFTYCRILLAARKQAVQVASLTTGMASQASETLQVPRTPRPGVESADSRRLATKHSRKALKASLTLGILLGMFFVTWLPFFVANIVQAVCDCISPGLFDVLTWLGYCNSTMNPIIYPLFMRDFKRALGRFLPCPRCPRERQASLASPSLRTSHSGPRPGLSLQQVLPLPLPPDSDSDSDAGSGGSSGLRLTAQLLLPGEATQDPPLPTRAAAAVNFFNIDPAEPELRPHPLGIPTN
Procedure: Ligand affinity for 5-HT6 receptors was subsequently tested with a radioligand binding assay, using the HEK293 cell line with human 5-HT6R, aiming to select compounds with the strongest affinity. Three compounds belonging to 2-naphthalenesulfonamide derivatives of 3,4-dihydroquinazolin-2-amines were obtained (Table 1).
as §3, §4

[6] = tested on: 1321N1 astrocytoma cells; experiment: Antiproliferative activity (MTS), 1321N1; assay type: cell-based, human; details: Homo sapiens, 1321-N1; MTS assay
Procedure: as §1, §2
Supplementary materials - Biological research […]

[7] = tested on: normal human astrocytes (NHA); experiment: Cytotoxicity (MTS), normal human astrocytes; assay type: cell-based; details: for IC50: Homo sapiens, Astrocyte, 72 h, normal human astrocytes, MTS assay
Procedure: as §1, with “The chosen group of ligands was further examined for their ability to inhibit proliferation across multiple cancer cell lines related to the CNS system (1321N1, U87MG, LN-229, and U-251). These” for “These”
The detailed procedure is presented in previous publications.[53] Briefly, the study utilized various human cancer and normal cell lines, including LN-229 (glioblastoma), MCF7 (breast carcinoma), HepG2 (hepatoma), U-251 (glioblastoma), U87MG (glioblastoma), AsPC-1 (pancreatic adenocarcinoma), and NHA (normal human astrocytes). Cells were cultured in appropriate media, supplemented with FBS, antibiotics, and other supplements, and incubated at 37 °C with 5% CO2. Compounds were dissolved in DMSO, prepared at various concentrations (1–25 μM), and applied to the cells for 72 h. Cell viability was assessed using the MTS assay, and the inhibitory concentration (IC50) was calculated using GraphPad Prism 8.0. Each compound was tested in triplicate across multiple experiments.

[8] = Solubility in DMSO and 10% DMSO in PBS buffer; assay type: physicochemical; details: symbols not defined; for Solubility, 10% DMSO, 1 mM: 10% DMSO in PBS buffer
Procedure: for 24 h. […] The IC50 were calculated as
Table S1. Solubility in DMSO and 10% DMSO in PBS buffer
3. Absorption – PAMPA permeability test
*Permeability coefficient.
**CFN = caffeine, well-permeable control

[9] = in vitro; details: PAMPA

| IC50 [1] [µM] | IC50 [4] [µM] | Ki [5] [µM] | IC50 [6] [µM] | Structure (SMILES) | Ki [2] [µM] | IC50 [3] [µM] | IC50 [7] [µM] | Solubility, 10% DMSO, 1 mM [8] | Solubility, 100% DMSO, 10 mM [8] | Papp [9] [×10⁻⁶ cm/s] | selectivity index ([7]; normal astrocytes versus cancer cell lines) |
| --- | --- | --- | --- | --- | --- | --- | --- | --- | --- | --- | --- |
| > 25 | > 25 | 0.109 ± 0.027 | 20.9 ± 1.4 | O=S(=O)(c1cccc2ccccc12)N1CCN(CCNC2=Nc3ccccc3CN2)CC1 [PP 6, N-{2-[4-(Naphthalene-1-sulfonyl)piperazin-1-yl]ethyl}-3,4-dihydroquinazolin-2-amine] | 0.042 | 51 |  |  |  |  |  |
| > 25 | > 25 | 0.069 ± 0.017 | 9.6 ± 1.8 | CC1NC(NCCCCCCNS(=O)(=O)c2c(Cl)ccc3ccccc23)=Nc2ccccc21 (centres unmarked) [PP 13, 2-Chloro-N-{6-[(4-methyl-3,4-dihydroquinazolin-2-yl)amino]hexyl}naphthalene-1-sulfonamide] | 0.019 | > 50 | 4.2 ± 0.4 | + + + | + + + | 0.19 |  |
| 18.4 ± 1.1 | 16.5 ± 1 | 0.272 ± 0.068 | 8.4 ± 1.9 | O=S1(=O)c2cccc3cccc(c23)N1CCCCCCNC1=Nc2ccccc2CN1 [PP 24, 3-{6-[(3,4-Dihydroquinazolin-2-yl)amino]hexyl}-2λ^6-thia-3-azatricyclo[6.3.1.0^4,^12]dodeca-1(11),4(12),5,7,9-pentaene-2,2-dione] |  |  | 7.9 ± 0.4 | + + + | + + + | 0.73 | below 1 |

The next lines start with the compound.

| Structure (SMILES) | IC50 [1] [µM] | IC50 [4] [µM] | Ki [5] [µM] | IC50 [6] [µM] | Ki [2] [µM] | IC50 [3] [µM] | IC50 [7] [µM] | Solubility, 10% DMSO, 1 mM [8] | Solubility, 100% DMSO, 10 mM [8] | Papp [9] [×10⁻⁶ cm/s] | selectivity index ([7]; normal astrocytes versus cancer cell lines) |
| --- | --- | --- | --- | --- | --- | --- | --- | --- | --- | --- | --- |
| CC1NC(NCCCCCCNS(=O)(=O)c2cccc3ccccc23)=Nc2ccccc21 (centres unmarked) [PP 10, N-{6-[(4-Methyl-3,4-dihydroquinazolin-2-yl)amino]hexyl}naphthalene-1-sulfonamide] | > 25 | > 25 | 0.096 ± 0.022 | 13.4 ± 0.8 | 0.165 | > 50 | 12.6 ± 0.4 | + + + | + + + | 0.03 |  |
| O=S(=O)(NCCCCCCNc1ncc2ccccc2n1)c1cccc2ccccc12 [PP 15, N-{6-[(Quinazolin-2-yl)amino]hexyl}naphthalene-1-sulfonamide] | > 25 | > 25 | 0.042 ± 0.011 | > 25 | 7.16 | > 50 |  | + + - | + + - | 0.13 |  |
